Measured values: US9688668B2, “Long chain base sphingosine kinase inhibitors” (UNIVERSITY OF VIRGINIA PATENT FOUNDATION, priority 2012, dated 2017)

target: recombinant SphK2 (Mus musculus, UniProt Q9JIA7); test: SphK2 scintillation proximity kinase assay; format: biochemical; settings: Estimated Ki values at recombinant SphK2; read-out: SphK2 (estimated Ki range)
Sequence (Q9JIA7 whole entry, looked up): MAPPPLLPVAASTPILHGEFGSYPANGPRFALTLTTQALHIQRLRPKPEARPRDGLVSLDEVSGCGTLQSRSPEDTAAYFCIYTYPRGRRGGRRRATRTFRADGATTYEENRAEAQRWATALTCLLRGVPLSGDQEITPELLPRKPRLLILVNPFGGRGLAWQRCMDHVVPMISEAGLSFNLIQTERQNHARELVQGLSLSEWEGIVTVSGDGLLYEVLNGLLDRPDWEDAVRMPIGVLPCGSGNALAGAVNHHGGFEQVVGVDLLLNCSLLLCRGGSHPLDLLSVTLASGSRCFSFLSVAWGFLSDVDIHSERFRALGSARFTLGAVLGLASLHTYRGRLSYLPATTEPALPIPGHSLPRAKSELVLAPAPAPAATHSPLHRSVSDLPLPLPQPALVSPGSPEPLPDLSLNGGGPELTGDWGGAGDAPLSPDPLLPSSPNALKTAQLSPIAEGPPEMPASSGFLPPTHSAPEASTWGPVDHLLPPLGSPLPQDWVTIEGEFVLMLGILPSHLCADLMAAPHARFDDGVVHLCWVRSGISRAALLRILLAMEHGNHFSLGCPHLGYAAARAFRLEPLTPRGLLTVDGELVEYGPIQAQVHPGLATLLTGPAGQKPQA

Row | Compound | Ki [µM]
1 | (S)-2-((3-(3-nonylphenyl)-1,2,4- oxadiazol-5-yl)methyl)pyrrolidine-1- carboximidamide [Compound 75] | > 10

tested on: not given; test: not given; settings: patients, 1-yr trial; cited from earlier work

Row | Compound | hypertension (blood pressure rise)
2 | CCCCCCCCc1ccc(CCC(N)(CO)CO)cc1 [fingolimod, 2-amino-2-[2-(4-octylphenyl)ethyl]propane 1,3-diol] | 2-3 mmHg

target: recombinant SphK1 (Homo sapiens (Human), UniProt Q9NYA1); test: SphK1 scintillation proximity kinase assay; settings: not given
Sequence (Q9NYA1 whole entry): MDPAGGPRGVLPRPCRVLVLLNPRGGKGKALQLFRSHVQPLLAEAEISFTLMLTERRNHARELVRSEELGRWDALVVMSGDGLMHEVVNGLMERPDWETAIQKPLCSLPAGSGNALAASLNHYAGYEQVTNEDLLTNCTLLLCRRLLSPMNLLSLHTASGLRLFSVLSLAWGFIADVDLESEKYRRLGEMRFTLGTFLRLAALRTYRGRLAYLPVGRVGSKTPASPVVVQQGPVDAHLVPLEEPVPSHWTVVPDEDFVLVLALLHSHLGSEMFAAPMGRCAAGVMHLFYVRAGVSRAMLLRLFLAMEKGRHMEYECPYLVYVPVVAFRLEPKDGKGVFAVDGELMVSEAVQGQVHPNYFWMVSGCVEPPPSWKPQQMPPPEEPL

Row | Compound | Ki [µM]
3 | CCCCCCCCc1ccc(-c2noc(CNC(=N)N)n2)cc1 [Compound 46, 1-((3-(4-octylphenyl)-1,2,4-oxadiazol-5-yl)methyl)guanidine] | 1 to 10
4 | CCCCCCCCc1ccc(-c2noc([C@H](C)NC(=N)N)n2)cc1 [Compound 47, (S)-1-(1-(3-(4-octylphenyl)-1,2,4-oxadiazol-5-yl)ethyl)guanidine] | 1 to 10
5 | CCCCCCCCCCCCc1ccc(-c2noc(C3(C(=N)N)CC3)n2)cc1 [Compound 11, 1-(3-(4-dodecylphenyl)-1,2,4-oxadiazol-5-yl) cyclopropanecarboximidamide] | 1 to 10
6 | CCCCCCCCCCCc1cc(-c2noc(C3(C(=N)N)CC3)n2)ccc1OC [Compound 14, 1-(3-(4-methoxy-3-undecylphenyl)-1,2,4-oxadiazol-5-yl)cyclopropanecarboximidamide] | < 1
7 | CCCCCCCCCCCCCCCCC(=N)N [Compound 3, heptadecanimidamide] | 1 to 10
8 | CCCCCCCCc1ccc([C@H]2CC[C@H](NC(=N)N)CC2)cc1 [Compound 34, 1-((1R,4R)-4-(4-octylphenyl)-cyclohexyl)guanidine] | 1 to 10

Further lines, results first:

Row | Ki [µM] | Compound
9 | 1 to 10 | CCCCCCCCc1ccc(-c2noc(C3CN(C(=N)N)C3)n2)cc1 [Compound 66, 3-(3-(4-octylphenyl)-1,2,4-oxadiazol-5-yl)azetidine-1-carboximidamide]
10 | > 10 | CCCCCCCCCCCCc1ccc(-c2noc([C@@H]3CCCN3C(=N)N)n2)cc1 [Compound 55, (S)-2-(3-(4-dodecylphenyl)-1,2,4-oxadiazol-5-yl)pyrrolidine-1-carboximidamide]
11 | > 10 | N=C(N)N1CC[C@H]1c1nc(-c2ccc(-c3ccccc3)cc2)no1 [Compound 60, (S)-2-(3-([1,1′-biphenyl]-4-yl)-1,2,4-oxadiazol-5-yl)azetidine-1-carboximidamide]
12 | 1 to 10 | CCCCCCCCCCc1ccc(-c2noc([C@@H]3CCN3C(=N)N)n2)cc1 [Compound 63, (S)-2-(3-(4-decylphenyl)-1,2,4-oxadiazol-5-yl)azetidine-1-carboximidamide]
13 | 1 to 10 | CCCCCCCCc1ccc(-c2noc([C@@H](NC(=N)N)C(C)C)n2)cc1 [Compound 48, (S)-1-(2-methyl-1-(3-(4-octylphenyl)-1,2,4-oxadiazol-5-yl)propyl)guanidine]
14 | > 10 | CCCCCCc1ccc(-c2noc([C@@H]3CCCN3C(=N)N)n2)cc1 [Compound 56, (S)-2-(3-(4-hexylphenyl)-1,2,4-oxadiazol-5-yl)pyrrolidine-1-carboximidamide]
15 | 1 to 10 | CCCCCCCCCCc1ccc(-c2noc([C@@H]3CCCN3C(=N)N)n2)cc1 [Compound 54, (S)-2-(3-(4-decylphenyl)-1,2,4-oxadiazol-5-yl)pyrrolidine-1-carboximidamide]

same assay, conditions: read-out: SphK1 (estimated Ki range); Estimated Ki values at recombinant SphK1

Row | Compound | Ki [µM]
16 | N=C(N)N1CCC[C@H]1c1nc(-c2ccc(C#CC3CCCC3)cc2)no1 [Compound 38, (S)-2-(3-(4-(cyclopentylethynyl)phenyl)-1,2,4-oxadiazol-5-yl)pyrrolidine-1-carboximidamide] | > 10
17 | CCCCCCCCCCCc1ccc(OC)c(-c2nnc(C3(C(=N)N)CC3)o2)c1 [Compound 24, 1-(5-(2-methoxy-5-undecylphenyl)-1,3,4-oxadiazol-2-yl)cyclopropanecarboximidamide] | < 1
18 | CCCCCCCCCCCCc1ccc(-c2noc(C3(NC(=N)N)CC3)n2)cc1 [Compound 44, 1-(1-(3-(4-dodecylphenyl)-1,2,4-oxadiazol-5-yl)cyclopropyl)guanidine] | > 10
19 | CCCCCCCCCCCc1cc(-c2nnc(C3(C(=N)N)CC3)o2)c(OC)cc1OC [Compound 22, 1-(5-(2,4-dimethoxy-5-undecylphenyl)-1,3,4-oxadiazol-2-yl)cyclopropanecarboximidamide] | < 1
20 | CCCCCCCCCCCCc1ccc(C(=O)NNC(=N)N)cc1 [Compound 1, 2-(4-dodecylbenzoyl)hydrazine carboximidamide] | > 10
21 | CCCCCCCCc1ccc(-c2noc(C3(NC(=N)N)CC3)n2)cc1 [Compound 42, 1-(1-(3-(4-octylphenyl)-1,2,4-oxadiazol-5-yl)cyclopropyl)guanidine] | > 10
22 | CCCCCCCCCCCCc1ccc(-c2coc(CC(=N)N)n2)cc1 [Compound 19, 2-(4-(4-dodecylphenyl)oxazol-2-yl)acetimidamide] | > 10
23 | CCCCCCCCCCc1ccc(CCCC(=N)N)cc1 [Compound 5, 4-(4-decylphenyl)butanimidamide] | > 10
24 | (S)-2-((3-(3-nonylphenyl)-1,2,4- oxadiazol-5-yl)methyl)pyrrolidine-1- carboximidamide [Compound 75] | > 10
25 | CCCCCCCCCCCc1cc(-c2nnc(C3(C(=N)N)CC3)o2)ccc1OC [Compound 27, 1-(5-(4-methoxy-3-undecylphenyl)-1,3,4-oxadiazol-2-yl)cyclopropanecarboximidamide] | < 1
26 | CCCCCCCCCCCCC/C=C/CC(=N)N [Compound 4, (E)-heptadec-3-enimidamide] | > 10
27 | CCCCCCCCCCCCc1noc([C@@H]2CCCN2C(=N)N)n1 [Compound 40, (S)-2-(3-dodecyl-1,2,4-oxadiazol-5-yl)pyrrolidine-1-carboximidamide] | > 10
28 | CCCCCCCCCCCCc1ccc(NC(=O)C2(NC(=N)N)CC2)cc1 [Compound 36, N-(4-dodecylphenyl)-1-guanidinocyclopropane-carboxamide] | > 10
29 | CCCCCCCCCCCCc1ccc(-c2coc(C(C)C(=N)N)n2)cc1 (stereo not shown) [Compound 18, 2-(4-(4-dodecylphenyl)oxazol-2-yl)propanimidamide] | > 10
30 | CCCCCCCCc1ccc(CNC(=O)C2(NC(=N)N)CC2)cc1 [Compound 35, 1-guanidino-N-(4-octylbenzyl) cyclopropanecarboxamide] | > 10
31 | CCCCCCCCc1ccc(C(=O)NCCOC(=N)N)cc1 [Compound 33, 2-(4-octylbenzamido)ethyl carbamimidate] | > 10
32 | CCCCCCCCCCCCCCCCc1noc([C@@H]2CCCN2C(=N)N)n1 [Compound 41, (S)-2-(3-hexadecyl-1,2,4-oxadiazol-5-yl)pyrrolidine-1-carboximidamide] | > 10
33 | CCCCCCCCc1noc([C@@H]2CCCN2C(=N)N)n1 [Compound 39, (S)-2-(3-octyl-1,2,4-oxadiazol-5-yl)pyrrolidine-1-carboximidamide] | > 10
34 | CCCCCCCCCCCCC/C=C/[C@@H](O)[C@@H](N)C(=N)N [Compound 2, (2S,3R,E)-2-amino-3-hydroxyoctadec-4-enimidamide] | > 10
35 | CCCCCCCCCCc1ccc(/C=C/CC(=N)N)cc1 [Compound 6, (E)-4-(4-decylphenyl)but-3-enimidamide] | > 10
36 | CCCCCCCCc1ccc(CC[C@@H](N)C(=N)N)cc1 [Compound 8, (R)-2-amino-4-(4-octylphenyl)butanimidamide] | > 10
37 | CCCCCCCCCCCCc1ccc(-c2noc(CC(=N)N)n2)cc1 [Compound 12, 2-(3-(4-dodecylphenyl)-1,2,4-oxadiazol-5-yl)acetimidamide] | > 10
38 | N=C(N)N1CCC[C@H]1c1nc(-c2ccc(I)cc2)no1 [Compound 37, (S)-2-(3-(4-iodophenyl)-1,2,4-oxadiazol-5-yl)pyrrolidine-1-carboximidamide] | > 10
39 | CCCCCCCCCCCc1ccc(-c2noc(C3(NC(=N)N)CC3)n2)cc1 [Compound 43, 1-(1-(3-(4-undecylphenyl)-1,2,4-oxadiazol-5-yl)cyclopropyl)guanidine] | > 10
40 | CCCCCCCCc1ccc(-c2noc(CN(C)C(=N)N)n2)cc1 [Compound 45, 1-methyl-1-((3-(4-octylphenyl)-1,2,4-oxadiazol-5-yl)methyl)guanidine] | > 10

More lines, now with the values ahead:

Row | Ki [µM] | Compound
41 | > 10 | CCCCCCCCCCCCCCc1ccc(-c2noc([C@@H]3CCCN3C(=N)N)n2)cc1 [Compound 57, (S)-2-(3-(4-tetradecylphenyl)-1,2,4-oxadiazol-5-yl)pyrrolidine-1-carboximidamide]
42 | > 10 | CCCCCCCCCCc1ccc(-c2noc(C3CN(C(=N)N)C3)n2)cc1 [Compound 67, 3-(3-(4-decylphenyl)-1,2,4-oxadiazol-5-yl)azetidine-1-carboximidamide]
43 | > 10 | CCCCCCCCc1cccc(-c2noc(C[C@@H]3CCCN3C(=N)N)n2)c1 [Compound 74, (S)-2-((3-(3-octylphenyl)-1,2,4-oxadiazol-5-yl)methyl)pyrrolidine-1-carboximidamide]
44 | > 10 | CCCCCCCCc1cccc(-c2noc([C@@H]3CCCN3C(=N)N)n2)c1 [Compound 58, (S)-2-(3-(3-octylphenyl)-1,2,4-oxadiazol-5-yl)pyrrolidine-1-carboximidamide]
45 | > 10 | N=C(N)N1CCC[C@H]1Cc1nc(-c2ccc(CS(=O)(=O)c3ccccc3)cc2)no1 [Compound 77, (S)-2-((3-(4-((phenylsulfonyl)methyl)phenyl)-1,2,4-oxadiazol-5-yl)methyl)pyrrolidine-1-carboximidamide]
46 | > 10 | CCCCCCCCc1ccc(-c2noc([C@@H]3CCN3C(=N)NO)n2)cc1 [Compound 65, (S)-N-hydroxy-2-(3-(4-octylphenyl)-1,2,4-oxadiazol-5-yl)azetidine-1-carboximidamide]
47 | > 10 | CCCCCCc1ccc(-c2noc([C@@H]3CCN3C(=N)N)n2)cc1 [Compound 61, (S)-2-(3-(4-hexylphenyl)-1,2,4-oxadiazol-5-yl)azetidine-1-carboximidamide]
48 | > 10 | CCCCCCCCc1ccc(-c2noc([C@@H]3CCN(C(=N)N)C3)n2)cc1 [Compound 59, (R)-3-(3-(4-octylphenyl)-1,2,4-oxadiazol-5-yl)pyrrolidine-1-carboximidamide]
49 | > 10 | CCCCCCCCCCCCc1noc(C[C@@H]2CCCN2C(=N)N)n1 [Compound 76, (S)-2-((3-dodecyl-1,2,4-oxadiazol-5-yl)methyl)pyrrolidine-1-carboximidamide]
